# What was measured:
# [1] = test system: EEG amplitude in anesthetized dogs; conditions: dog, in vivo
# [2] = test system: seizure activity on the EEG; conditions: dog, in vivo
smiles,measurement,setting,value
C1CCc2nnnn2CC1 [pentylenetetrazole],"EEG amplitude, left hemisphere (occipital frontal leads)",[1],35.6 ± 8.0 μV
same,"EEG amplitude, right hemisphere (occipital frontal leads)",[1],31.5 ± 8.0 μV
same,increase in EEG amplitude,[1],344%
same,cumulative dose at which seizure activity was observed,[2],11 to 41 mg/kg
same,dogs with seizure activity after pentylenetetrazole,[2],Seizure activity was observed in all the dogs

# — patent US5466700A (priority 1993, dated 1995)
